Results as given in patent USRE30731E, “Enkephalin analogues” (priority 1977, dated 1981).

What was measured:
mouse vas deferens = mouse vas deferens (M.V.D.) assay; assay type: cell-based; details: Met Enkephalin = 100%
Description: (II)M.V.D. stands for mouse vas deferens
Kosterhtz, H. W. & Leslie. F. M. Br. J. Pharmac. 53, 371, 381,

rat brain membranes = test: radio receptor assay (R.R.A.): displacement of tritiated naloxone from rat brain membranes; assay type: binding; details: based on concentration displacing 50% of (3H)naloxone (1 nM) from rat brain membranes; 0.1 M NaCl/50 mM Tris pH 7.4; 15 minutes; bacitracin
Description: (III)R.R.A. stands for radio receptor assay; based on the concentration
required to displace 50% of tritiated naloxone from rat brain membranes.
The displacements .[.replacements.]. were carried out against (^3
H)naloxane (lnM) in 0.1 M sodium chloride/50mM Tris buffer at pH 7.4;
incubations were for 15 minutes in the .Iadd.presence
.Iaddend..[.absence.]. of bacitracin. For general reference to the method
see literature as discussed in "Opiate Receptor Mechanisms". S. H. Snyder
and S. Matthysse eds, MIT Press, 1975.

rats = test: tail flick assay, intraventricular administration; assay type: in vivo, rat; details: administered intraventricularly to rats
Description: Also, we have indications of in vivo analgesic effects of the analogues.

5-Amino-6-(4'-hdyroxyphenyl)-hexanoyl-glycyl-L-phenylalanyl-L-methionine a mide [Analogue H211]
Activity Relative to Met Enkephalin, M.V.D. (mouse vas deferens): 0.9% | Activity Relative to Met Enkephalin, R.R.A. (rat brain membranes): 8% | analgesia (tail flick assay) (rats): analgesia lasting for several minutes
